Results taken from US20110288086A1, “POLYCYCLIC QUINAZOLINES, PREPARATION THEREOF, AND USE THEREOF” (priority 2010, published 2011).
In brackets after ≈: the same amount, converted by molar mass.

Key:
[1] = test system: PANC-1 human pancreatic cancer cells; assay: Tumor cell IC50, CCK-8 kit, PANC-1; format: cell-based; details: PANC-1 cells
Excerpt: (§1) The inhibitory activities of the compounds on tumor cells (IC50) in vitro
(§2) The IC50 (IC50, unit: μg/ml) values of the compounds on Hut78 T-Lymphocytic Leukemia cells, Jurkat E6-1 human T-cell lymphoma, PANC-1 human pancreatic cancer cells, A549 human lung cancer cells, K562 human chronicity marrow leukemic cells, Hep3B2. 1-7 human hepatoma carcinoma cells, MDA-MB-435s human breast carcinoma cells, Colo320 human rectal cancer cells, PC-3 human carcinoma of prostate, and HepG2 human hepatoma carcinoma cells were determined using a CCK-8 kit. Erlotinib hydrochloride was used as the positive control drug.

[2] = test system: PC-3 human carcinoma of prostate; assay: Tumor cell IC50, CCK-8 kit, PC-3; format: cell-based; details: PC-3 cells
Excerpt: as §1, §2

[3] = test system: K562 human chronicity marrow leukemic cells; assay: Tumor cell IC50, CCK-8 kit, K562; format: cell-based
Excerpt: as §1, §2

[4] = Acute Toxicity Study; details: in vivo; preliminary screening, Bliss statistical method
Experimental: The acute toxicity experiments were carried out according to the methods disclosed in the book of Modern Pharmacological Methods, edited chiefly by Zhang Jun-Tian.

[5] = test system: A549 human lung cancer cells; assay: Tumor cell IC50, CCK-8 kit, A549; format: cell-based
Excerpt: as §1, §2

[6] = test system: PC-3 human carcinoma of prostate; assay: Tumor cell inhibition ratio, CCK-8 kit, PC-3; details: read-out: Antiproliferative effect (inhibition ratio) PC-3
Excerpt: (§3) The inhibitory activities of the compounds on tumor cells in vitro

[7] = test system: Hep3B2.1-7 human hepatoma carcinoma cells; assay: Tumor cell inhibition ratio, CCK-8 kit, Hep3B; details: read-out: Antiproliferative effect (inhibition ratio) Hep3B
Excerpt: as §3

[8] = test system: Hut78 T-Lymphocytic Leukemia cells; assay: Tumor cell inhibition ratio, CCK-8 kit, Hut78; details: Homo sapiens, HuT78, read-out: Antiproliferative effect (inhibition ratio) Hut-78
Excerpt: as §3

[9] = test system: Colo320 human rectal cancer cells; assay: Tumor cell IC50, CCK-8 kit, Colo320; format: cell-based; details: COLO 320
Excerpt: as §1, §2

[10] = test system: A549 human lung cancer cells; assay: Tumor cell inhibition ratio, CCK-8 kit, A549; details: A549, read-out: Antiproliferative effect (inhibition ratio) A549
Excerpt: as §3

[11] = test system: K562 human chronicity marrow leukemic cells; assay: Tumor cell inhibition ratio, CCK-8 kit, K562; details: K562, read-out: Antiproliferative effect (inhibition ratio) K562
Excerpt: as §3

[12] = test system: Hut78 T-Lymphocytic Leukemia cells; assay: Tumor cell IC50, CCK-8 kit, Hut78; format: cell-based; details: Homo sapiens, Hut-78 cells
Excerpt: as §1, §2

[13] = test system: Jurkat E6-1 human T-cell lymphoma; assay: Tumor cell IC50, CCK-8 kit, Jurkat E6-1; format: cell-based; details: E6-1 cells
Excerpt: as §1, §2

[14] = test system: MDA-MB-435s human breast carcinoma cells; assay: Tumor cell inhibition ratio, CCK-8 kit, MDA-MB-435s; details: read-out: Antiproliferative effect (inhibition ratio) 435s
Excerpt: as §3

[15] = molecular target: EGFR tyrosine kinase (Homo sapiens, UniProt P00533); assay: EGFR tyrosine kinase inhibition in vitro (Invitrogen EGFR inhibitor screening kit PV3193)
Chain of EGFR tyrosine kinase (P00533 25-1210): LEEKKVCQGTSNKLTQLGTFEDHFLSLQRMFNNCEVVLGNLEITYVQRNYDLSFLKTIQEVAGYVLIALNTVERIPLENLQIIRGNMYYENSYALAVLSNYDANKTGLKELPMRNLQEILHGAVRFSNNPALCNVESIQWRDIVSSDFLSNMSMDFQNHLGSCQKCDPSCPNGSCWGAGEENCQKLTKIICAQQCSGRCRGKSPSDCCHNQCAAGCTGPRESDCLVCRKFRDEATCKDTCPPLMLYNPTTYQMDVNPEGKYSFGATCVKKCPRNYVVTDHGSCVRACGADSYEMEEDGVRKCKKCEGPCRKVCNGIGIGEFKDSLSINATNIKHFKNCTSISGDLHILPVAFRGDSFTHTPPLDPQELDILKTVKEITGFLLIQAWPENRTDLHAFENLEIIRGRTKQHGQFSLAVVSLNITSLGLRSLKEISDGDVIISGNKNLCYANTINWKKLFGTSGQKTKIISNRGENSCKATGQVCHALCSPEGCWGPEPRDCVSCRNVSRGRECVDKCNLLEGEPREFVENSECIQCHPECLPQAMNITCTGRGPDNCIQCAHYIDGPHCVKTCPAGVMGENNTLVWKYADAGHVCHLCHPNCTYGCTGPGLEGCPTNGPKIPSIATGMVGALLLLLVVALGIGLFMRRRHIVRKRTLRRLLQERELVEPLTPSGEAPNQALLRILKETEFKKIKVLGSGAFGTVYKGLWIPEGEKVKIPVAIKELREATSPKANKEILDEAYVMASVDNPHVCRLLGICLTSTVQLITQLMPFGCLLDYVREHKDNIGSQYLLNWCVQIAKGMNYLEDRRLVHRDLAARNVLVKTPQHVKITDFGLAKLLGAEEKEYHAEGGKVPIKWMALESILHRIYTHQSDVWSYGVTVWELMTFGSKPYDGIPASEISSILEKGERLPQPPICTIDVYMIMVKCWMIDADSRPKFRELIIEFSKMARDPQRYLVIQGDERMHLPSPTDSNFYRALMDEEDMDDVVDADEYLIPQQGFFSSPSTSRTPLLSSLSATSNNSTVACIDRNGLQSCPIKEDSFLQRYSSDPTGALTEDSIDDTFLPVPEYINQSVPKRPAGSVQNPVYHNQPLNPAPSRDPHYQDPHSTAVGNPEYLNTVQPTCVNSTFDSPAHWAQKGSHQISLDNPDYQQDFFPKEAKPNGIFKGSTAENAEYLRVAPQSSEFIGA
Excerpt: The inhibitory activities of EGFR tyrosine kinase in vitro
Erlotinib hydrochloride was used as a positive control drug.

[16] = molecular target: T1, aurora kinase B (Homo sapiens, UniProt Q96GD4); assay: Aurora kinase B inhibition in vitro (Invitrogen aurora kinase screening kit PV3174); format: biochemical
T1 construct: purchased Invitrogen PV3174
T1 sequence (Q96GD4 whole entry): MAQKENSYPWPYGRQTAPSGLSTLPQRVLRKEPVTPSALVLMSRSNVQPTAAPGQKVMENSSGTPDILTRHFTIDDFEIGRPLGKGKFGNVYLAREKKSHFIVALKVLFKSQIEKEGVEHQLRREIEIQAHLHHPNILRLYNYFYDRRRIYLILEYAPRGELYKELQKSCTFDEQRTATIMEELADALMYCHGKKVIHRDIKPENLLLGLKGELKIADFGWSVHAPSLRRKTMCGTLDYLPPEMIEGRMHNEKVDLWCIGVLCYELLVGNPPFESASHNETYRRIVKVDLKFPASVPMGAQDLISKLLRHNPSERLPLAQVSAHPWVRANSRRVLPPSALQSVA

[17] = test system: Hep3B2. 1-7 human hepatoma carcinoma cells; assay: Tumor cell IC50, CCK-8 kit, Hep3B; format: cell-based
Excerpt: as §1, §2

[18] = test system: PANC-1 human pancreatic cancer cells; assay: Tumor cell inhibition ratio, CCK-8 kit, PANC-1; details: PANC-1, read-out: Antiproliferative effect (inhibition ratio) PANC-1
Excerpt: as §3

[19] = test system: Colo320 human rectal cancer cells; assay: Tumor cell inhibition ratio, CCK-8 kit, Colo320; details: COLO 320, read-out: Antiproliferative effect (inhibition ratio) Colo320
Excerpt: as §3

[20] = test system: MDA-MB-435s human breast carcinoma cells; assay: Tumor cell IC50, CCK-8 kit, MDA-MB-435s; format: cell-based; details: 435s cells
Excerpt: as §1, §2

[21] = test system: Jurkat E6-1 human T-cell lymphoma; assay: Tumor cell inhibition ratio, CCK-8 kit, Jurkat E6-1; details: Jurkat E6.1, read-out: Antiproliferative effect (inhibition ratio) E6-1
Excerpt: as §3

COCCOc1cc2c(cc1OCCOC)C1=Nc3cc(Cl)ccc3C(C)N1C=N2.O=C(O)CC(O)C(=O)O (stereo not shown) [Compound V-22, 11-chloro-8-methyl-2,3-bis(2-methoxyethoxy)-8H-quinazolino[4,3-b]quinazoline malate] gave an IC50 [1] of 84.3 mg/L, an IC50 [2] of 7.69 mg/L and an IC50 [3] of 19.6 mg/L. For the same molecule, the LD50 [4] was 1340 mg/kg, the IC50 [5] was 9.87 mg/L and the inhibition at 10 µM [6] was 64%. For the same molecule, the inhibition at 100 µM [6] was 97%, the inhibition at 10 µM [7] was 62.3% and the inhibition at 100 µM [7] was 90.7%. It also gave an inhibition at 10 µM [8] of 54.1%, an inhibition at 100 µM [8] of 94.6% and an IC50 [9] of 4.67 mg/L. The inhibition at 10 µM [10] was 54.6%, the inhibition at 100 µM [10] was 96.2% and the inhibition at 10 µM [11] was 23.1%. The inhibition at 100 µM [11] was 88.8%, the IC50 [12] was 11.4 mg/L and the IC50 [13] was 13.3 mg/L. For the same molecule, the inhibition at 10 µM [14] was 63.4%, the inhibition at 100 µM [14] was 94.1% and the “The inhibition ratio of the compound on EGFR(%)” value ([15]; 40 μM) was 63.2%. The “The inhibition ratio of the compound on EGFR(%)” value ([15]; 200 μM) was 95.6%, the “The inhibition ratio of the compound on Aurora B(%)” value ([16]; 40 μM) was 57.2% and the “The inhibition ratio of the compound on Aurora B(%)” value ([16]; 200 μM) was 95.6%. For the same molecule, the IC50 [17] was 14.4 mg/L, the inhibition at 10 µM [18] was 60.9% and the inhibition at 100 µM [18] was 95.4%. For the same molecule, the inhibition at 10 µM [19] was 43.8%, the inhibition at 100 µM [19] was 99% and the IC50 [20] was 6.18 mg/L. For the same molecule, the inhibition at 10 µM [21] was 67% and the inhibition at 100 µM [21] was 98%.
CS(=O)(=O)CCNCc1ccc(-c2ccc3c(c2)C2=Nc4ccc(OCc5cccc(F)c5)c(Cl)c4CN2C=N3)o1 [Compound V-33, N-((5-(9-chloro-10-(3-fluorobenzyloxy)-8H-quinazolino[4,3-b]quinazoline-2-yl)furan-2-yl)methyl)-2-(methylsulfonyl)ethylamine] showed an IC50 [1] of 1.97 mg/L (≈ 3.32 µM), an IC50 [2] of 40.7 mg/L (≈ 68.6 µM) and an IC50 [3] of 62.6 mg/L (≈ 105 µM). For the same molecule, the LD50 [4] was 2840 mg/kg, the IC50 [5] was 0.05 mg/L (≈ 0.0843 µM) and the inhibition at 10 µM [6] was 16.5%. The inhibition at 100 µM [6] was 78.2%, the inhibition at 10 µM [7] was 51.3% and the inhibition at 100 µM [7] was 86.5%. The inhibition at 10 µM [8] was 61%, the inhibition at 100 µM [8] was 92.8% and the IC50 [9] was 7.83 mg/L (≈ 13.2 µM). The inhibition at 10 µM [10] was 48.1%, the inhibition at 100 µM [10] was 86.1% and the inhibition at 10 µM [11] was 40.5%. It also gave an inhibition at 100 µM [11] of 86%, an IC50 [12] of 13.4 mg/L (≈ 22.6 µM) and an IC50 [13] of 15.4 mg/L (≈ 25.9 µM). The inhibition at 10 µM [14] was 62.7%, the inhibition at 100 µM [14] was 99.5% and the “The inhibition ratio of the compound on EGFR(%)” value ([15]; 40 μM) was 64.3%. The “The inhibition ratio of the compound on EGFR(%)” value ([15]; 200 μM) was 97.9%, the “The inhibition ratio of the compound on Aurora B(%)” value ([16]; 40 μM) was 54.6% and the “The inhibition ratio of the compound on Aurora B(%)” value ([16]; 200 μM) was 93.7%. The IC50 [17] was 22.7 mg/L (≈ 38.3 µM), the inhibition at 10 µM [18] was 50.3% and the inhibition at 100 µM [18] was 88%. It also gave an inhibition at 10 µM [19] of 61.6%, an inhibition at 100 µM [19] of 96.3% and an IC50 [20] of 10.3 mg/L (≈ 17.4 µM). For the same molecule, the inhibition at 10 µM [21] was 41.6% and the inhibition at 100 µM [21] was 90.8%.
